# Data taken from patent publication US20240391926A1, “SPIROINDOLINONE COMPOUNDS AS Kv1.3 POTASSIUM SHAKER CHANNEL BLOCKERS” (D.E. Shaw Research, LLC, priority 2021, published 2024).
# Target: T1, Kv1.3 potassium channel (Homo sapiens, UniProt P22001)
# T1 construct: expressed in transfected cells
# Test: Kv1.3 potassium channel blocker activity, automated whole-cell patch clamp (Patchliner) in CHO-K1 cells stably expressing Kv1.3
# Type: cell-based
# Details: 30 nM-100 μM
# Protocol: This assay is used to evaluate the disclosed compounds' activities as Kv1.3 potassium channel blockers.
# CHO-K1 cells stably expressing Kv1.3 were grown in DMEM containing 10% heat-inactivated FBS, 1 mM sodium pyruvate, 2 mM L-glutamine, and G418 (500 μg/ml). Cells were grown in culture flasks at 37° C. in a 5% CO2-humidified incubator.
# The cells were bathed in an extracellular solution containing 140 mM NaCl, 4 mM KCl, 2 mM CaCl2), 1 mM MgCl2, 5 mM glucose, 10 mM HEPES; pH adjusted to 7.4 with NaOH; 295-305 mOsm. The internal solution contained 50 mM KCl, 10 mM NaCl, 60 mM KF, 20 mM EGTA, 10 mM HEPES; pH adjusted to 7.2 with KOH; 285 mOsm. All compounds were dissolved in DMSO at 30 mM. Compound stock solutions were freshly diluted with external solution to concentrations of 30 nM, 100 nM, 300 nM, 1 μM, 3 μM, 10 μM, 30 μM and 100 μM. The highest content of DMSO (0.3%) was present in 100 μM.
# The currents were evoked by applying 100 ms depolarizing pulses from −90 mV (holding potential) to +40 mV were applied with 0.1 Hz frequency. Control (compound-free) and compound pulse trains for each compound concentration applied contained 20 pulses. 10-second breaks were used between pulse trains (see Table A below).
# Whole-cell current recordings and compound application were enabled by means of an automated patch clamp platform Patchliner (Nanion Technologies GmbH). EPC 10 patch clamp amplifier (HEKA Elektronik Dr. Schulze GmbH) along with Patchmaster software (HEKA Elektronik Dr. Schulze GmbH) was used for data acquisition. Data were sampled at 10 kHz without filtering. Passive leak currents were subtracted online using a P/4 procedure (HEKA Elektronik Dr. Schulze GmbH). Increasing compound concentrations were applied consecutively to the same cell without washouts in between. Total compound incubation time before the next pulse train was not longer than 10 seconds. Peak current inhibition was observed during compound equilibration.
# AUC and peak values were obtained with Patchmaster (HEKA Elektronik Dr. Schulze GmbH). To determine IC50, the last single pulse in the pulse train corresponding to a given compound concentration was used. Obtained AUC and peak values in the presence of compound were normalized to control values in the absence of compound. Using Origin (OridinLab), IC50 was derived from data fit to Hill equation: Icompound/Icontrol=(100−A)/(1+([compound]/IC50)nH)+A, where IC50 value is the concentration at which current inhibition is half-maximal, [compound] is the applied compound concentration, A is the fraction of current that is not blocked and nH is the Hill coefficient.
# T1 sequence (P22001 whole entry): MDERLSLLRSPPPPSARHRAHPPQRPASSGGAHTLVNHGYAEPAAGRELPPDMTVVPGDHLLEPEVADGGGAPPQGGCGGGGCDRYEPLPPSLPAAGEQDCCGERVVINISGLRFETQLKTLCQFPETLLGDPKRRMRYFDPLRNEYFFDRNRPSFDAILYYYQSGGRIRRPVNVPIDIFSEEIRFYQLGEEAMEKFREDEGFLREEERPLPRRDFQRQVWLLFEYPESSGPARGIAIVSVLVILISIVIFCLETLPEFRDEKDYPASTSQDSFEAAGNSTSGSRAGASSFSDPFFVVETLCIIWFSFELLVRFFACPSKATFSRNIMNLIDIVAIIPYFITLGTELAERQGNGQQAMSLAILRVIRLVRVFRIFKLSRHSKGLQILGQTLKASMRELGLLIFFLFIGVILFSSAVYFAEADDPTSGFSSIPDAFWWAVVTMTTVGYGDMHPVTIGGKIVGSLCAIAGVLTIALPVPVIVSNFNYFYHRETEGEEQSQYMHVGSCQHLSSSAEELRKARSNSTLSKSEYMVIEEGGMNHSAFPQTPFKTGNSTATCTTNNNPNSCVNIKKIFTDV
row,SMILES,IC50
1,"O=C(C[C@H](O)CO)N1CC[C@]2(C1)C(=O)Nc1cc(Cl)c(Cl)cc12 [Compound 76, (S)-5,6-dichloro-1′-((S)-3,4-dihydroxybutanoyl)spiro[indoline-3,3′-pyrrolidin]-2-one]",< 3 µM
2,"O=C(C[C@@H](O)CO)N1CC[C@]2(C1)C(=O)Nc1cc(Cl)c(Cl)cc12 [Compound 77, (S)-5,6-dichloro-1′-((R)-3,4-dihydroxybutanoyl)spiro[indoline-3,3′-pyrrolidin]-2-one]",< 10 µM
3,"O=C(c1cnn(CCO)c1)N1CC[C@]2(C1)C(=O)Nc1cc(Cl)c(Cl)cc12 [Compound 78, (S)-5,6-dichloro-1′-(1-(2-hydroxyethyl)-1H-pyrazole-4-carbonyl)spiro[indoline-3,3′-pyrrolidin]-2-one]",< 10 µM
4,"O=C(c1cc(CO)[nH]n1)N1CC[C@]2(C1)C(=O)Nc1cc(Cl)c(Cl)cc12 [Compound 79, (S)-5,6-dichloro-1′-(5-(hydroxymethyl)-1H-pyrazole-3-carbonyl)spiro[indoline-3,3′-pyrrolidin]-2-one]",< 3 µM
5,"CN1CC(C(=O)N2CC[C@]3(C2)C(=O)Nc2cc(Cl)c(Cl)cc23)CC1=O (stereo partly drawn) [Compound 81, (3S)-5,6-dichloro-1′-(1-methyl-5-oxopyrrolidine-3-carbonyl)spiro[indoline-3,3′-pyrrolidin]-2-one]",< 3 µM
6,"Cn1ccc(C(=O)N2CC[C@]3(C2)C(=O)Nc2cc(Cl)c(Cl)cc23)cc1=O [Compound 82, (S)-5,6-dichloro-1′-(1-methyl-2-oxo-1,2-dihydropyridine-4-carbonyl)spiro[indoline-3,3′-pyrrolidin]-2-one]",< 3 µM
7,"Cn1cc(C(=O)N2CC[C@]3(C2)C(=O)Nc2cc(Cl)c(Cl)cc23)ccc1=O [Compound 83, (S)-5,6-dichloro-1′-(1-methyl-6-oxo-1,6-dihydropyridine-3-carbonyl)spiro[indoline-3,3′-pyrrolidin]-2-one]",< 10 µM
8,"O=C(N1CC[C@]2(C1)C(=O)Nc1cc(Cl)c(Cl)cc12)C1(O)CC1 [Compound 85, (S)-5,6-dichloro-1′-(1-hydroxycyclopropane-1-carbonyl)spiro[indoline-3,3′-pyrrolidin]-2-one]",< 10 µM
9,"CC(C)(O)C(=O)N1CC[C@]2(C1)C(=O)Nc1cc(Cl)c(Cl)cc12 [Compound 86, (S)-5,6-dichloro-1′-(2-hydroxy-2-methylpropanoyl)spiro[indoline-3,3′-pyrrolidin]-2-one]",< 3 µM
10,"CC(C)(O)CC(=O)N1CC[C@]2(C1)C(=O)Nc1cc(Cl)c(Cl)cc12 [Compound 87, (S)-5,6-dichloro-1′-(3-hydroxy-3-methylbutanoyl)spiro[indoline-3,3′-pyrrolidin]-2-one]",< 10 µM
11,"C[C@H](O)CC(=O)N1CC[C@]2(C1)C(=O)Nc1cc(Cl)c(Cl)cc12 [Compound 88, (S)-5,6-dichloro-1′-((S)-3-hydroxybutanoyl)spiro[indoline-3,3′-pyrrolidin]-2-one]",< 3 µM
12,"C[C@@H](O)CC(=O)N1CC[C@]2(C1)C(=O)Nc1cc(Cl)c(Cl)cc12 [Compound 89, (S)-5,6-dichloro-1′-((R)-3-hydroxybutanoyl)spiro[indoline-3,3′-pyrrolidin]-2-one]",< 3 µM
13,"O=C(CC1(O)CCC1)N1CC[C@]2(C1)C(=O)Nc1cc(Cl)c(Cl)cc12 [Compound 90, (S)-5,6-dichloro-1′-(2-(1-hydroxycyclobutyl)acetyl)spiro[indoline-3,3′-pyrrolidin]-2-one]",< 10 µM
14,"CC[C@H](O)C(=O)N1CC[C@]2(C1)C(=O)Nc1cc(Cl)c(Cl)cc12 [Compound 91, (S)-5,6-dichloro-1′-((S)-2-hydroxybutanoyl)spiro[indoline-3,3′-pyrrolidin]-2-one]",< 3 µM
15,"CC[C@@H](O)C(=O)N1CC[C@]2(C1)C(=O)Nc1cc(Cl)c(Cl)cc12 [Compound 92, (S)-5,6-dichloro-1′-((R)-2-hydroxybutanoyl)spiro[indoline-3,3′-pyrrolidin]-2-one]",< 10 µM
16,"O=C(CO)N1CC[C@@]2(C1)C(=O)Nc1cc(Cl)c(Br)cc12 [Compound 117, (R)-5-bromo-6-chloro-1′-(2-hydroxyacetyl)spiro[indoline-3,3′-pyrrolidin]-2-one]",< 10 µM
17,"Cc1cc2c(cc1Cl)[C@@]1(CCN(C(=O)CO)C1)C(=O)N2 [Compound 119, (R)-5-chloro-1′-(2-hydroxyacetyl)-6-methylspiro[indoline-3,3′-pyrrolidin]-2-one]",< 10 µM
18,"O=C(CO)N1CC[C@@]2(C1)C(=O)Nc1c2cc(Cl)c(Cl)c1Cl [Compound 122, (3R)-5,6,7-trichloro-1′-(2-hydroxyacetyl)-1H-spiro[indole-3,3′-pyrrolidin]-2-one]",< 3 µM
19,"Nc1nnc(N2CC[C@]3(C2)C(=O)Nc2cc(Cl)c(Cl)cc23)o1 [Compound 132, (S)-1′-(5-amino-1,3,4-oxadiazol-2-yl)-5,6-dichlorospiro[indoline-3,3′-pyrrolidin]-2-one]",< 3 µM
20,"NS(=O)(=O)N1CC[C@]2(C1)C(=O)Nc1cc(Cl)c(Cl)cc12 [Compound 142, (S)-5,6-dichloro-2-oxospiro[indoline-3,3′-pyrrolidine]-1′-sulfonamide]",< 3 µM
21,CS(=O)(=O)N1CC[C@]2(C1)C(=O)Nc1cc(Cl)c(Cl)cc12 [Compound 143],< 1 µM

# Continued, values first:
row,IC50,SMILES
1,< 1 µM,"O=C(c1cn[nH]c1CO)N1CC[C@]2(C1)C(=O)Nc1cc(Cl)c(Cl)cc12 [Compound 80, (S)-5,6-dichloro-1′-(5-(hydroxymethyl)-1H-pyrazole-4-carbonyl)spiro[indoline-3,3′-pyrrolidin]-2-one]"
2,< 1 µM,"Nc1ccc(C(=O)N2CC[C@]3(C2)C(=O)Nc2cc(Cl)c(Cl)cc23)cn1 [Compound 84, (S)-1′-(6-aminonicotinoyl)-5,6-dichlorospiro[indoline-3,3′-pyrrolidin]-2-one]"
3,< 1 µM,"COC[C@@H]1C[C@@H](C(=O)N2CC[C@]3(C2)C(=O)Nc2cc(Cl)c(Cl)cc23)CN1 [Compound 110, (3S)-5,6-dichloro-1′-[(3R,5S)-5-(methoxymethyl)pyrrolidine-3-carbonyl]-1H-spiro[indole-3,3′-pyrrolidin]-2-one]"
4,< 1 µM,"COC[C@H]1C[C@@H](C(=O)N2CC[C@]3(C2)C(=O)Nc2cc(Cl)c(Cl)cc23)CN1 [Compound 111, (S)-5,6-dichloro-1′-((3R,5R)-5-(methoxymethyl)pyrrolidine-3-carbonyl)spiro[indoline-3,3′-pyrrolidin]-2-one]"
5,< 1 µM,"O=C(CO)N1CC[C@]2(C1)C(=O)Nc1cc(Cl)c(Br)cc12 [Compound 118, (S)-5-bromo-6-chloro-1′-(2-hydroxyacetyl)spiro[indoline-3,3′-pyrrolidin]-2-one]"
6,< 1 µM,"Cc1c(Cl)cc2c(c1F)NC(=O)[C@@]21CCN(C(=O)CO)C1 [Compound 127, (S)-5-chloro-7-fluoro-1′-(2-hydroxyacetyl)-6-methylspiro[indoline-3,3′-pyrrolidin]-2-one]"
7,< 1 µM,"O=C(c1cc[nH]c1)N1CC[C@]2(C1)C(=O)Nc1cc(Cl)c(Cl)cc12 [Compound 135, (S)-5,6-dichloro-1′-(1H-pyrrole-3-carbonyl)spiro[indoline-3,3′-pyrrolidin]-2-one]"
8,< 1 µM,"O=C(c1nnc[nH]1)N1CC[C@]2(C1)C(=O)Nc1cc(Cl)c(Cl)cc12 [Compound 136, (S)-5,6-dichloro-1′-(1H-1,2,4-triazole-3-carbonyl)spiro[indoline-3,3′-pyrrolidin]-2-one]"
9,< 1 µM,"O=C(c1cn[nH]n1)N1CC[C@]2(C1)C(=O)Nc1cc(Cl)c(Cl)cc12 [Compound 137, (S)-5,6-dichloro-1′-(1H-1,2,3-triazole-4-carbonyl)spiro[indoline-3,3′-pyrrolidin]-2-one]"
10,< 1 µM,"O=C1Nc2cc(Cl)c(Cl)cc2[C@]12CCN(S(=O)(=O)CCO)C2 [Compound 138, (3S)-5,6-dichloro-1′-(2-hydroxyethanesulfonyl)-1H-spiro[indole-3,3′-pyrrolidin]-2-one]"
11,< 1 µM,"Nc1ccnc(N2CC[C@]3(C2)C(=O)Nc2cc(Cl)c(Cl)cc23)n1 [Compound 139, (S)-1′-(4-aminopyrimidin-2-yl)-5,6-dichlorospiro[indoline-3,3′-pyrrolidin]-2-one]"
12,< 1 µM,"Cc1cc(Cl)cc2c1NC(=O)[C@@]21CCN(C(=O)CO)C1 [Compound 140, (S)-5-chloro-1′-(2-hydroxyacetyl)-7-methylspiro[indoline-3,3′-pyrrolidin]-2-one]"
